Tests used:
LLC tumors [1] = test: Tumor growth delay, LLC hind limb tumors; format: in vivo, mice
From the text: As disclosed herein, the induction of apoptosis correlated with the biological response in tumor blood vessels and tumor growth delay. […] Both the inhibitor and radiation were discontinued after day 8. […] Time to doubling of LLC tumor size was 5, 6, 8, and 16 days for each group, respectively.

LLC tumors [2] = test: Tumor growth delay with SU11248, LLC tumors; format: in vivo, nude mice; settings: drug alone
Protocol: (§1) D54 and LLC tumors were implanted into both hind limbs of nude mice as described in Example 2. Tumors were grown over the course of seven to 10 days.
(§2) In comparison, LLC tumors responded to SU11248 alone or in combination with radiation.

[3] = tested on: A431, Colo205, H460, C6 and SF763T tumors; settings: regression, growth arrest or growth delay of xenografts; cited from earlier work
tumor vasculature = test: Tumor vascular length density, intravital tumor vascular window; format: in vivo, mice
Protocol: Tumor vascular linear density was measured by use of intravital tumor vascular window. […] Five mice were treated in each of the treatment groups, and the vascular length density after treatment was quantified.

HUVECs [4] = test: Apoptotic nuclei in HUVECs, H&E staining; format: cell-based, human; settings: 24 hours
Protocol: After a 24-hour incubation period, cells were fixed and stained with Hematoxylin and Eosin (H&E). Five high-powered fields (400×) were observed and counted for each experimental group.

HUVECs [5] = test: Clonogenic survival of HUVECs; format: cell-based, human; settings: SU11248 prior to irradiation compared to radiation alone (p<0.05)
D54 tumors = test: Tumor growth delay with SU11248, D54 tumors; format: in vivo, nude mice; settings: SU11248 alone
Protocol: as §1, §2

tumor endothelial cells = test: TUNEL staining of treated tumor sections; format: in vivo

SMILES: CCN(CC)CCNC(=O)c1c(C)[nH]c(/C=C2\C(=O)Nc3ccc(F)cc32)c1C [SU11248]
- Time to doubling of LLC tumor size (LLC tumors [1]; SU11248 40 mg/kg i.p. 30 minutes before each 3 Gy dose (21 Gy total)): 16 days
- Time to doubling of LLC tumor size (LLC tumors [1]; SU11248 40 mg/kg i.p. daily, seven administrations, alone): 6 days
- Tumor growth delay (LLC tumors [2]): showed a tumor growth delay
- Anti-tumor activity in mice [3]: broad and potent anti-tumor activity
- Vascular length density (VLD) in tumors (tumor vasculature; SU11248 40 mg/kg followed by 3 Gy, within 72 hours): 8 % of that at 0 hours
- Vascular length density (VLD) in tumors (tumor vasculature; SU11248 alone): 84 % that of 0 hour
- Percentage of endothelial cells with apoptotic nuclei (HUVECs [4]; 100 nM SU11248 alone): 7%
- Percentage of endothelial cells with apoptotic nuclei (HUVECs [4]; 100 nM SU11248 followed by 6 Gy): 21%
- Clonogenic survival (HUVECs [5]): significant reduction in clonogenic survival
- Tumor growth delay (D54 tumors): did not show tumor growth delay
- Threshold radiation dose for induction of apoptosis (tumor endothelial cells; SU11248 administered prior to irradiation, tumor endothelium): 2 Gy
- TUNEL staining of tumor sections (tumor endothelial cells; SU11248 alone): no TUNEL staining
- TUNEL staining of tumor sections (tumor endothelial cells; SU11248 followed by 3 Gy, co-localization with vWF): positive TUNEL staining in endothelial cells
